Test [1] has as its system Sweetpotato Whitefly-Crawler (WF) (Bemisia tabaci) (BEMITA). The test is described as follows: Insecticidal test for Sweetpotato Whitefly-Crawler (WF) in foliar spray assay on cotton plants. The class given is in vivo. As to conditions: 216 h, 200 ppm foliar spray on cotton plants, graded after 9 days, Abbott corrected % control, read-out: WF 200 ppm, % Control (or Mortality) rating. Summed up: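 Whitefly nymph control on egg-infested cotton (eggs laid 4–5 days pre-treatment), foliar spray at 200 ppm test compound. Live late-stage nymphs counted microscopically 9 days later at ~25 °C; control calculated by Abbott's formula relative to acetone-diluent-sprayed plants.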

Test [2] has as its system Green Peach Aphid (GPA) (Myzus persicae) (MYZUPE). The test is described as follows: Bioassay for Green Peach Aphid (GPA), foliar spray on cabbage seedlings. The class given is in vivo. As to conditions: 72 h, 200 ppm foliar spray on cabbage seedlings, graded after three days, Abbott corrected % control, read-out: GPA 200 ppm, % Control (or Mortality) rating. Summed up:
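Foliar spray test: 200 ppm solutions (0.025% Tween 20 in water, 20% acetone/methanol) applied to both leaf sides of aphid-infested cabbage seedlings. After 3 days at about 25° C, live aphids per plant were counted; control corrected to solvent check via Abbott's formula.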

A value given as a limit tells only on which side of the number the result lay.

As a reminder, the mortality is the percentage killed. On to `CCN(C(=O)C1CCCN(C(=O)OC(C)(C)C)C1)c1cn(-c2cccnc2)nc1Cl` (stereo not drawn) [FA18, tert-Butyl 3-((3-chloro-1-(pyridin-3-yl)-1H-pyrazol-4-yl)(ethyl)carbamoyl) piperidine-1-carboxylate], for which the mortality at 200 ppm in test [1] and in test [2] was 80 to 100% each time.
`CON=C(C)CCC(=O)N(C)c1cn(-c2cccnc2)nc1Cl` (mixture of isomers) [Compound F60, (E/Z)-N-(3-Chloro-1-(pyridin-3-yl)-1H-pyrazol-4-yl)-4-(methoxyimino)-N-methylpentanamide]: the mortality at 200 ppm in test [1] and in test [2] was 80 to 100% in each case.
For `CCN(C(=O)CCC(=O)NCc1ccncc1)c1cn(-c2cccnc2)nc1Cl` [Compound F115, N1-(3-Chloro-1-(pyridin-3-yl)-1H-pyrazol-4-yl)-N1-ethyl-N4-(pyridin-4-ylmethyl)succinamide], the mortality at 200 ppm in test [1] fell in the range of 80 to 100%; in test [2] it was 0 to 80%.
The corresponding values for `CCN(C(=O)CCC(=O)NCc1cccc(Cl)c1)c1cn(-c2cccnc2)nc1Cl` [Compound F68, N1-(3-Chloro-1-(pyridin-3-yl)-1H-pyrazol-4-yl)-N4-(3-chlorobenzyl)-N1-ethylsuccinamide] are 80 to 100% and 0 to 80%.
The corresponding values for `CCN(C(=O)CN1CCCC1=O)c1cn(-c2cccnc2)nc1Cl` [Compound F124, N-(3-Chloro-1-(pyridin-3-yl)-1H-pyrazol-4-yl)-N-ethyl-2-(2-oxopyrrolidin-1-yl)acetamide] are 80 to 100% and 80 to 100%.
The like results for `CCN(C(=O)CCN1CCSC1=O)c1cn(-c2cccnc2)nc1Cl` [Compound F88, N-(3-Chloro-1-(pyridin-3-yl)-1H-pyrazol-4-yl)-N-ethyl-3-(2-oxothiazolidin-3-yl)propanamide] were, in that order, 80 to 100% and 0 to 80%.
As for `CCN(C(=O)CC/C(=N/OCCCC(F)(F)F)c1cccs1)c1cn(-c2cccnc2)nc1Cl` [FA27, (Z)-N-(3-Chloro-1-(pyridin-3-yl)-1H-pyrazol-4-yl)-N-ethyl-4-(thiophen-2-yl)-4-((4,4,4-trifluorobutoxy)imino)butanamide], the mortality at 200 ppm in test [1] and in test [2] was 0 to 80% each time.
For the molecule `CCN1CC(CCCC(=O)N(CC)c2cn(-c3cccnc3)nc2Cl)C1=O` (stereo not drawn) [Compound F81, N-(3-Chloro-1-(pyridin-3-yl)-1H-pyrazol-4-yl)-N-ethyl-4-(1-ethyl-2-oxoazetidin-3-yl)butanamide], the mortality at 200 ppm in test [1] and in test [2] was 80 to 100% each time.
With `CCN(C(=O)CCNC(=O)CCC(F)(F)F)c1cn(-c2cccnc2)nc1Cl` [Compound F12, N-(3-((3-Chloro-1-(pyridin-3-yl)-1H-pyrazol-4-yl)(ethyl)amino)-3-oxopropyl)-4,4,4-trifluorobutanamide], the mortality at 200 ppm in test [1] and in test [2] was 80 to 100% each time.
On to `CCN(C(=O)CCC(=O)NCCC(F)(F)F)c1cn(-c2cccnc2)nc1Cl` [Compound F73, N1-(3-Chloro-1-(pyridin-3-yl)-1H-pyrazol-4-yl)-N1-ethyl-N4-(3,3,3-trifluoropropyl) succinamide], for which the mortality at 200 ppm in test [1] and in test [2] was 80 to 100% in each case.
`CCN(C(=O)CCNC(=O)CC(F)(F)F)c1cn(-c2cccnc2)nc1Cl` [Compound F63, N-(3-((3-Chloro-1-(pyridin-3-yl)-1H-pyrazol-4-yl)(ethyl)amino)-3-oxopropyl)-3,3,3-trifluoropropanamide]: the mortality at 200 ppm in test [1] and in test [2] was 80 to 100% in each case.
Take `CCN(C(=O)CCCC1CN(Cc2ccc(C(F)(F)F)cc2)C1=O)c1cn(-c2cccnc2)nc1Cl` (stereo not drawn) [Compound F127, N-(3-Chloro-1-(pyridin-3-yl)-1H-pyrazol-4-yl)-N-ethyl-4-(2-oxo-1-(4-(trifluoromethyl)benzyl)azetidin-3-yl)butanamide]: the mortality at 200 ppm in test [1] lay in the range of 80 to 100%; in test [2], 0 to 80%.
On to `CCN(C(=O)C(C)OC(=O)CC(F)(F)F)c1cn(-c2cccnc2)nc1Cl` (stereo not drawn) [FA74, 1-((3-Chloro-1-(pyridin-3-yl)-1H-pyrazol-4-yl)(ethyl)amino)-1-oxopropan-2-yl 3,3,3-trifluoropropanoate], for which the mortality at 200 ppm lay in the range of 0 to 80% in test [1] and 80 to 100% in test [2].
The corresponding values for `CCN(C(=O)CCC(=O)N(C)CC(F)(F)F)c1cn(-c2cccnc2)nc1Cl` [Compound F85, N1-(3-Chloro-1-(pyridin-3-yl)-1H-pyrazol-4-yl)-N1-ethyl-N4-methyl-N4-(2,2,2-trifluoroethyl) succinamide] are 80 to 100% and 80 to 100%.
The corresponding values for `CCN(C(=O)C1CN(C(=O)C(F)(F)F)C1)c1cn(-c2cccnc2)nc1Cl` [FA14, N-(3-Chloro-1-(pyridin-3-yl)-1H-pyrazol-4-yl)-N-ethyl-1-(2,2,2-trifluoroacetyl)azetidine-3-carboxamide] are 80 to 100% and 80 to 100%.
The like results for `CCN(C(=O)C(C)OC(C)=O)c1cn(-c2cccnc2)nc1Cl` (stereo not drawn) [Compound C12, 1-((3-chloro-1-(pyridin-3-yl)-1H-pyrazol-4-yl)(ethyl)amino)-1-oxopropan-2-yl acetate] were, in that order, 80 to 100% and 80 to 100%.
With `CCN(C(=O)CCN1CCCC1=O)c1cn(-c2cccnc2)nc1Cl` [Compound F39, N-(3-Chloro-1-(pyridin-3-yl)-1H-pyrazol-4-yl)-N-ethyl-3-(2-oxopyrrolidin-1-yl)propanamide], the mortality at 200 ppm in test [1] and in test [2] was 80 to 100% in each case.
`CN(C(=O)[C@@H]1C=C[C@H](NC(=O)C(F)(F)F)C1)c1cn(-c2cccnc2)nc1Cl` [Compound F126, (1S,4R)-N-(3-chloro-1-(pyridin-3-yl)-1H-pyrazol-4-yl)-N-methyl-4-(2,2,2-trifluoroacetamido)cyclopent-2-enecarboxamide]: the mortality at 200 ppm in test [1] lay in the range of 80 to 100%; in test [2] it was 0 to 80%.
In the case of `CCN(C(=O)CC/C(C)=N\OCCC1CC1(F)F)c1cn(-c2cccnc2)nc1Cl` (stereo not drawn) [FA49, (Z)-N-(3-Chloro-1-(pyridin-3-yl)-1H-pyrazol-4-yl)-4-((2-(2,2-difluorocyclopropyl)ethoxy)imino)-N-ethylpentanamide], the mortality at 200 ppm in test [1] was in the range of 80 to 100%; in test [2] it was 0 to 80%.
Take `CC(=O)N1CCC(C(=O)N(C)c2cn(-c3cccnc3)nc2Cl)CC1` [Compound F29, 1-Acetyl-N-(3-chloro-1-(pyridin-3-yl)-1H-pyrazol-4-yl)-N-methylpiperidine-4-carboxamide]: the mortality at 200 ppm in test [1] and in test [2] was 80 to 100% each time.
Regarding `CCN(C(=O)CCC1CNC1=O)c1cn(-c2cccnc2)nc1Cl` (stereo not drawn) [Compound F50], the mortality at 200 ppm lay in the range of 80 to 100% in test [1] and 0 to 80% in test [2].
The like results for `CCN(C(=O)C1CCCN(C(=O)C(C)C)C1)c1cn(-c2cccnc2)nc1Cl` (stereo not drawn) [FA3, N-(3-Chloro-1-(pyridin-3-yl)-1H-pyrazol-4-yl)-N-ethyl-1-isobutylylpiperidine-3-carboxamide] were, in that order, 80 to 100% and 80 to 100%.
As to `CCN(C(=O)CCNC(=O)CC#N)c1cn(-c2cccnc2)nc1Cl` [Compound F101, N-(3-Chloro-1-(pyridin-3-yl)-1H-pyrazol-4-yl)-3-(2-cyanoacetamido)-N-ethylpropanamide], the mortality at 200 ppm was in the range of 80 to 100% in test [1] and 0 to 80% in test [2].
Regarding `Cc1nn(-c2cccnc2)cc1N(C)C(=O)CCC(=O)N(C)C` [Compound F62, N1,N1,N4-trimethyl-N4-(3-methyl-1-(pyridin-3-yl)-1H-pyrazol-4-yl)succinamide], the mortality at 200 ppm in test [1] and in test [2] was 80 to 100% each time.
On to `CCN(C(=O)C1CCN(C(=O)c2cccnc2)C1)c1cn(-c2cccnc2)nc1Cl` (stereo not drawn) [FA12, N-(3-Chloro-1-(pyridin-3-yl)-1H-pyrazol-4-yl)-N-ethyl-1-nicotinoylpyrrolidine-3-carboxamide], for which the mortality at 200 ppm in test [1] and in test [2] was 0 to 80% in each case.
Take `CCN(C(=O)CCCC(C)=O)c1cn(-c2cncc(F)c2)nc1C` [FA70, N-Ethyl-N-(1-(5-fluoropyridin-3-yl)-3-methyl-1H-pyrazol-4-yl)-5-oxohexanamide]: the figures for the mortality at 200 ppm in test [1] and in test [2] were 80 to 100% and 0 to 80%, respectively.
The corresponding values for `CCN(C(=O)C1CN(C(=O)OC(C)(C)C)C1)c1cn(-c2cccnc2)nc1Cl` [Compound F26] are 0 to 80% and 80 to 100%.
The like results for `CCN(C(=O)C1CCN(C(=O)C(F)(F)F)C1)c1cn(-c2cccnc2)nc1Cl` (stereo not drawn) [FA9, N-(3-Chloro-1-(pyridin-3-yl)-1H-pyrazol-4-yl)-N-ethyl-1-(2,2,2-trifluoroacetyl)pyrrolidine-3-carboxamide] were, in that order, under 0% and 80 to 100%.
The corresponding values for `CCN(C(=O)C1CCN(C(C)=O)C1)c1cn(-c2cccnc2)nc1Cl` (stereo not drawn) [Compound P20, 1-Acetyl-N-(3-chloro-1-(pyridin-3-yl)-1H-pyrazol-4-yl)-N-ethylpyrrolidine-3-carboxamide] are 0 to 80% and 80 to 100%.
As to `CCN(C(=O)CCC=NOCCC1CC1(F)F)c1cn(-c2cccnc2)nc1Cl` (mixture of isomers) [FA61, (E/Z)-N-(3-Chloro-1-(pyridin-3-yl)-1H-pyrazol-4-yl)-4-((2-(2,2-difluorocyclopropyl)ethoxy)imino)-N-ethylbutanamide], the mortality at 200 ppm in test [1] and in test [2] was 80 to 100% each time.

For the origin of these results see US9523100B2, “Pesticidal compositions and related methods” (DOW AGROSCIENCES LLC, priority 2013, dated 2016).
